Data on six compounds can be found in ChEMBL document CHEMBL1149531, “Inhibitory effect of 2-arylbenzofurans from Erythrina addisoniae on protein tyrosine phosphatase-1B” (Bioorg Med Chem Lett, 2007).

The structures appear in SMILES notation. pIC50: −log10 of the molar value.

The target in the experiment is T1, Tyrosine-protein phosphatase non-receptor type 1 (Homo sapiens, UniProt P18031).
T1 sequence (P18031 whole entry): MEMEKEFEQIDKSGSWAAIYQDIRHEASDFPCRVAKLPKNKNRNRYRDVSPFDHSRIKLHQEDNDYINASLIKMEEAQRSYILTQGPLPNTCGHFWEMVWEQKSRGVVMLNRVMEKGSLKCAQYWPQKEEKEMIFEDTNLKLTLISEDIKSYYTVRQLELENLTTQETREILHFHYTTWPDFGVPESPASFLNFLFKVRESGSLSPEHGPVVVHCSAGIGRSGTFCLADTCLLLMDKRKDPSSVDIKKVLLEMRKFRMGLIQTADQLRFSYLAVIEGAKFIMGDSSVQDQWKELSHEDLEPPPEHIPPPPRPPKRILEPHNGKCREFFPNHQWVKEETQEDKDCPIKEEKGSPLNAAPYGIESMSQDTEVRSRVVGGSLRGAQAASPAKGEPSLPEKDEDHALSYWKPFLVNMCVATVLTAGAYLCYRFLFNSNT
Compound `CC1(C)C=Cc2c(O)ccc(-c3cc4ccc(O)cc4o3)c2O1` showed a pIC50 of 4.20.

The compound `CC1(C)C=Cc2c(ccc(-c3cc4ccc(O)cc4o3)c2O)O1` gave a pIC50 of 4.19.

In the case of `COc1ccc2cc(-c3ccc(O)cc3OC)oc2c1`, the pIC50 was 4.13.

The compound `CC(C)=CCc1c(O)ccc(-c2cc3ccc(O)cc3o2)c1O` [2'-O-DEMETHYLBIDWILLOL B] had a pIC50 of 4.87.

With `COc1cc(O)c(CC=C(C)C)cc1-c1cc2ccc(O)cc2o1` [ADDISOFURAN A], the pIC50 is 4.76.

Turning to `COc1cc(O)ccc1-c1cc2cc(CC=C(C)C)c(O)cc2o1` [ADDISOFURAN B], the pIC50 was 4.80.

In general, pIC50 refers to −log10 of the IC50, conventionally taken in molar units. Low values mean a high IC50, high ones a low IC50.
